{
  "source": "the supplement of paper PMC10627819",
  "key": {"[1]": {"tested_on": "S. pneumoniae D39V", "experiment": "fitness (endpoint OD595 vs no drug) (fraction); higher = more growth", "procedure,_shortened": "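Fitness was defined as the optical density at the transition into stationary phase relative to the robust mean of no-drug control wells. Values were capped at 1. Cultures were started at OD595 0.01 in 384-well plates (30 µl, or 55 µl for S. pneumoniae) in TSB, LB Lennox or CY at 37 °C. OD595 was recorded every 30 min over 14 h, with the first reading subtracted as background.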"}, "[2]": {"tested_on": "S. aureus Newman", "experiment": "Bliss interaction score (quartile over a dose matrix) (fitness difference); higher = more antagonism (negative = synergy)", "procedure,_shortened": "(§1)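 The Bliss score was calculated by subtracting the expected fitness, the product of single-drug values, from the observed fitness. OD595 at entry into stationary phase, over the plate's robust no-drug mean and capped at 1, served as the fitness readout. Single-drug values were inferred from combination data, and scores are summarised by quartiles across technical, biological and donor/recipient replicates.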"}, "[3]": {"tested_on": "S. aureus DSM 20231", "experiment": "Bliss interaction score (quartile over a dose matrix) (fitness difference); higher = more antagonism (negative = synergy)", "procedure,_shortened": "as §1"}, "[4]": {"tested_on": "S. pneumoniae D39V", "experiment": "Bliss interaction score (quartile over a dose matrix) (fitness difference); higher = more antagonism (negative = synergy)", "procedure,_shortened": "as §1"}, "[5]": {"tested_on": "B. subtilis 168", "experiment": "Bliss interaction score (quartile over a dose matrix) (fitness difference); higher = more antagonism (negative = synergy)", "procedure,_shortened": "as §1"}, "[6]": {"details": "first compound 0.025 µg/mL, partner 2 µg/mL, one replicate"}, "[7]": {"details": "first compound 0.025 µg/mL, partner 4 µg/mL, one replicate"}, "[8]": {"details": "first compound 0.2 µg/mL, partner 2 µg/mL"}, "[9]": {"details": "first compound 0.2 µg/mL, partner 4 µg/mL"}, "[10]": {"details": "first compound 0.025 µg/mL, partner 0.125 µg/mL, one replicate"}, "[11]": {"details": "first compound 0.025 µg/mL, partner 0.25 µg/mL, one replicate"}, "[12]": {"details": "first compound 0.025 µg/mL, partner 0.5 µg/mL, one replicate"}, "[13]": {"details": "first compound 0.05 µg/mL, partner 0.03125 µg/mL"}, "[14]": {"details": "first compound 0.05 µg/mL, partner 0.0625 µg/mL"}, "[15]": {"details": "first compound 0.05 µg/mL, partner 0.25 µg/mL"}, "[16]": {"details": "first compound 0.05 µg/mL, partner 0.5 µg/mL"}, "[17]": {"details": "first compound 0.1 µg/mL, partner 0.03125 µg/mL"}, "[18]": {"details": "first compound 0.1 µg/mL, partner 0.0625 µg/mL"}, "[19]": {"details": "first compound 0.2 µg/mL, partner 0.03125 µg/mL"}, "[20]": {"details": "first compound 0.2 µg/mL, partner 0.0625 µg/mL"}, "[21]": {"details": "first compound 0.2 µg/mL, partner 0.125 µg/mL"}, "[22]": {"details": "first compound 0.2 µg/mL, partner 0.25 µg/mL, one replicate"}, "[23]": {"details": "first compound 0.2 µg/mL, partner 0.5 µg/mL, one replicate"}},
  "data": [
    {"smiles": "CO[C@H]1/C=C/O[C@@]2(C)Oc3c(C)c(O)c4c(O)c(c(/C=N/N5CCN(C)CC5)c(O)c4c3C2=O)NC(=O)/C(C)=C\\C=C\\[C@H](C)[C@H](O)[C@@H](C)[C@@H](O)[C@@H](C)[C@H](OC(C)=O)[C@@H]1C", "note": "[Rifampicin] + CN[C@@H]1[C@H](O[C@H]2[C@H](O[C@H]3[C@H](O)[C@@H](O)[C@H](N=C(N)N)[C@@H](O)[C@@H]3N=C(N)N)O[C@@H](C)[C@]2(O)C=O)O[C@@H](CO)[C@H](O)[C@H]1O [Streptomycin]", "values": [
      {"measurement": "fitness", "setting": "[1]; [6]", "value": 0.804},
      {"measurement": "fitness", "setting": "[1]; [7]", "value": 0.823},
      {"measurement": "fitness", "setting": "[1]; first compound 0.025 µg/mL, partner 8 µg/mL, one replicate", "value": 0.725},
      {"measurement": "fitness", "setting": "[1]; first compound 0.05 µg/mL, partner 16 µg/mL, one replicate", "value": 0.272},
      {"measurement": "fitness", "setting": "[1]; first compound 0.1 µg/mL, partner 4 µg/mL", "value": 0.292},
      {"measurement": "fitness", "setting": "[1]; first compound 0.1 µg/mL, partner 8 µg/mL", "value": 0.304},
      {"measurement": "fitness", "setting": "[1]; first compound 0.1 µg/mL, partner 16 µg/mL, one replicate", "value": 0.215},
      {"measurement": "fitness", "setting": "[1]; [8]", "value": 0.0493},
      {"measurement": "fitness", "setting": "[1]; [9]", "value": 0.0964},
      {"measurement": "fitness", "setting": "[1]; first compound 0.2 µg/mL, partner 8 µg/mL", "value": 0.185},
      {"measurement": "fitness", "setting": "[1]; first compound 0.2 µg/mL, partner 16 µg/mL, one replicate", "value": 0.137},
      {"measurement": "Bliss interaction score", "setting": "[2]", "value": -0.0179},
      {"measurement": "Bliss interaction score", "setting": "[3]", "value": -0.0315},
      {"measurement": "Bliss interaction score", "setting": "[4]", "value": -0.121},
      {"measurement": "Bliss interaction score", "setting": "[5]", "value": 0.184}
    ]},
    {"smiles": "CO[C@H]1/C=C/O[C@@]2(C)Oc3c(C)c(O)c4c(O)c(c(/C=N/N5CCN(C)CC5)c(O)c4c3C2=O)NC(=O)/C(C)=C\\C=C\\[C@H](C)[C@H](O)[C@@H](C)[C@@H](O)[C@@H](C)[C@H](OC(C)=O)[C@@H]1C", "note": "[Rifampicin] + CN[C@H](CC(C)C)C(=O)N[C@H]1C(=O)N[C@@H](CC(N)=O)C(=O)N[C@H]2C(=O)N[C@H]3C(=O)N[C@H](C(=O)N[C@H](C(=O)O)c4cc(O)cc(O)c4-c4cc3ccc4O)[C@H](O)c3ccc(c(Cl)c3)Oc3cc2cc(c3O[C@@H]2O[C@H](CO)[C@@H](O)[C@H](O)[C@H]2O[C@H]2C[C@](C)(N)[C@H](O)[C@H](C)O2)Oc2ccc(cc2Cl)[C@H]1O [Vancomycin]", "values": [
      {"measurement": "fitness", "setting": "[1]; [10]", "value": 0.903},
      {"measurement": "fitness", "setting": "[1]; [11]", "value": 0.823},
      {"measurement": "fitness", "setting": "[1]; [12]", "value": 0.267},
      {"measurement": "fitness", "setting": "[1]; [13]", "value": 0.886},
      {"measurement": "fitness", "setting": "[1]; [14]", "value": 0.846},
      {"measurement": "fitness", "setting": "[1]; [15]", "value": 0.707},
      {"measurement": "fitness", "setting": "[1]; [16]", "value": 0.299},
      {"measurement": "fitness", "setting": "[1]; [17]", "value": 0.537},
      {"measurement": "fitness", "setting": "[1]; [18]", "value": 0.476},
      {"measurement": "fitness", "setting": "[1]; [19]", "value": 0.162},
      {"measurement": "fitness", "setting": "[1]; [20]", "value": 0.161},
      {"measurement": "fitness", "setting": "[1]; [21]", "value": 0.0937},
      {"measurement": "fitness", "setting": "[1]; [22]", "value": 0},
      {"measurement": "fitness", "setting": "[1]; [23]", "value": 0},
      {"measurement": "Bliss interaction score", "setting": "[2]", "value": 0.0383},
      {"measurement": "Bliss interaction score", "setting": "[3]", "value": -0.0199},
      {"measurement": "Bliss interaction score", "setting": "[4]", "value": 0.135},
      {"measurement": "Bliss interaction score", "setting": "[5]", "value": 0.029}
    ]},
    {"smiles": "CO[C@H]1/C=C/O[C@@]2(C)Oc3c(C)c(O)c4c(O)c(c(/C=N/N5CCN(C)CC5)c(O)c4c3C2=O)NC(=O)/C(C)=C\\C=C\\[C@H](C)[C@H](O)[C@@H](C)[C@@H](O)[C@@H](C)[C@H](OC(C)=O)[C@@H]1C", "note": "[Rifampicin] + Cc1cc(NS(=O)(=O)c2ccc(N)cc2)no1 [Sulfamethoxazol]", "values": [
      {"measurement": "fitness", "setting": "[1]; first compound 0.025 µg/mL, partner 1 µg/mL, one replicate", "value": 0.837},
      {"measurement": "fitness", "setting": "[1]; [6]", "value": 0.831},
      {"measurement": "fitness", "setting": "[1]; [7]", "value": 0.828},
      {"measurement": "fitness", "setting": "[1]; first compound 0.05 µg/mL, partner 1 µg/mL", "value": 0.933},
      {"measurement": "fitness", "setting": "[1]; first compound 0.05 µg/mL, partner 2 µg/mL", "value": 0.93},
      {"measurement": "fitness", "setting": "[1]; first compound 0.05 µg/mL, partner 4 µg/mL", "value": 0.853},
      {"measurement": "fitness", "setting": "[1]; first compound 0.2 µg/mL, partner 1 µg/mL", "value": 0.0772},
      {"measurement": "fitness", "setting": "[1]; [8]", "value": 0.0834},
      {"measurement": "fitness", "setting": "[1]; [9]", "value": 0.104},
      {"measurement": "Bliss interaction score", "setting": "[2]", "value": -0.0257},
      {"measurement": "Bliss interaction score", "setting": "[3]", "value": -0.0278},
      {"measurement": "Bliss interaction score", "setting": "[4]", "value": 0.0639},
      {"measurement": "Bliss interaction score", "setting": "[5]", "value": -0.052}
    ]},
    {"smiles": "CO[C@H]1/C=C/O[C@@]2(C)Oc3c(C)c(O)c4c(O)c(c(/C=N/N5CCN(C)CC5)c(O)c4c3C2=O)NC(=O)/C(C)=C\\C=C\\[C@H](C)[C@H](O)[C@@H](C)[C@@H](O)[C@@H](C)[C@H](OC(C)=O)[C@@H]1C", "note": "[Rifampicin] + Cn1nnc(-c2ccc(-c3ccc(N4C[C@H](CO)OC4=O)cc3F)cn2)n1 [Tedizolid]", "values": [
      {"measurement": "fitness", "setting": "[1]; [10]", "value": 0.832},
      {"measurement": "fitness", "setting": "[1]; [11]", "value": 0.726},
      {"measurement": "fitness", "setting": "[1]; [12]", "value": 0.254},
      {"measurement": "fitness", "setting": "[1]; [13]", "value": 0.98},
      {"measurement": "fitness", "setting": "[1]; [14]", "value": 0.97},
      {"measurement": "fitness", "setting": "[1]; first compound 0.05 µg/mL, partner 0.125 µg/mL", "value": 0.907},
      {"measurement": "fitness", "setting": "[1]; [15]", "value": 0.591},
      {"measurement": "fitness", "setting": "[1]; [16]", "value": 0.21},
      {"measurement": "fitness", "setting": "[1]; [17]", "value": 0.743},
      {"measurement": "fitness", "setting": "[1]; [18]", "value": 0.79},
      {"measurement": "fitness", "setting": "[1]; first compound 0.1 µg/mL, partner 0.25 µg/mL", "value": 0.343},
      {"measurement": "fitness", "setting": "[1]; first compound 0.1 µg/mL, partner 0.5 µg/mL", "value": 0.181},
      {"measurement": "fitness", "setting": "[1]; [19]", "value": 0.197},
      {"measurement": "fitness", "setting": "[1]; [20]", "value": 0.233},
      {"measurement": "fitness", "setting": "[1]; [21]", "value": 0.122},
      {"measurement": "fitness", "setting": "[1]; [22]", "value": 0},
      {"measurement": "fitness", "setting": "[1]; [23]", "value": 0},
      {"measurement": "Bliss interaction score", "setting": "[2]", "value": -0.0238},
      {"measurement": "Bliss interaction score", "setting": "[3]", "value": 0.0203},
      {"measurement": "Bliss interaction score", "setting": "[4]", "value": 0.133},
      {"measurement": "Bliss interaction score", "setting": "[5]", "value": -0.0782}
    ]}
  ]
}
